Data taken from patent US20250129067A1 (Progentos Therapeutics, Inc., priority 2021, published 2025).
Where two headings read alike, the source gives them in different places.

What was measured:
PDGFRα = PDGFRα (Homo sapiens (Human), UniProt P16234); test: PDGFRα kinase enzyme assay (Promega PDGFRα Kinase Enzyme System, ADP-Glo); type: biochemical; details: 150 uM ATP
Protocol: The PDGFRα enzyme assays were conducted per the manufacturer's directions (Promega PDGFRα Kinase Enzyme System and ADP Glo Assay Cat #V8011). […] 20 ng of purified PDGFRα protein was added to the test article. […] ADP-Glo was added to halt the kinase reaction and deplete the remaining ATP. Kinase detection reagent, containing luciferase and luciferin, was used to convert the ADP signal into luminescence. Luminescence was measured using a Molecular Devices Spectramax ID5 and compared to a standard curve to determine kinase activity. IC50s were calculated using Prism 9, Graphpad software.

[1] = test system: Oligodendrocyte progenitor cells (OPCs); test: In vitro OPC differentiation assay, GPR17 expression (immunocytochemistry); details: 72 hours; for GPR17 Fold Induction (Over Vehicle; 3 μM): 3 μM (10× concentration, final 0.3 μM), fold change over vehicle
[2] = 11-point dose response, 10,000 nM to 0.169 nM, BLQ = below limit of quantitation, read-out: IC50 Values on PDGFRα Kinase Inhibition, IC50

Sequence of PDGFRα (P16234 24-1089): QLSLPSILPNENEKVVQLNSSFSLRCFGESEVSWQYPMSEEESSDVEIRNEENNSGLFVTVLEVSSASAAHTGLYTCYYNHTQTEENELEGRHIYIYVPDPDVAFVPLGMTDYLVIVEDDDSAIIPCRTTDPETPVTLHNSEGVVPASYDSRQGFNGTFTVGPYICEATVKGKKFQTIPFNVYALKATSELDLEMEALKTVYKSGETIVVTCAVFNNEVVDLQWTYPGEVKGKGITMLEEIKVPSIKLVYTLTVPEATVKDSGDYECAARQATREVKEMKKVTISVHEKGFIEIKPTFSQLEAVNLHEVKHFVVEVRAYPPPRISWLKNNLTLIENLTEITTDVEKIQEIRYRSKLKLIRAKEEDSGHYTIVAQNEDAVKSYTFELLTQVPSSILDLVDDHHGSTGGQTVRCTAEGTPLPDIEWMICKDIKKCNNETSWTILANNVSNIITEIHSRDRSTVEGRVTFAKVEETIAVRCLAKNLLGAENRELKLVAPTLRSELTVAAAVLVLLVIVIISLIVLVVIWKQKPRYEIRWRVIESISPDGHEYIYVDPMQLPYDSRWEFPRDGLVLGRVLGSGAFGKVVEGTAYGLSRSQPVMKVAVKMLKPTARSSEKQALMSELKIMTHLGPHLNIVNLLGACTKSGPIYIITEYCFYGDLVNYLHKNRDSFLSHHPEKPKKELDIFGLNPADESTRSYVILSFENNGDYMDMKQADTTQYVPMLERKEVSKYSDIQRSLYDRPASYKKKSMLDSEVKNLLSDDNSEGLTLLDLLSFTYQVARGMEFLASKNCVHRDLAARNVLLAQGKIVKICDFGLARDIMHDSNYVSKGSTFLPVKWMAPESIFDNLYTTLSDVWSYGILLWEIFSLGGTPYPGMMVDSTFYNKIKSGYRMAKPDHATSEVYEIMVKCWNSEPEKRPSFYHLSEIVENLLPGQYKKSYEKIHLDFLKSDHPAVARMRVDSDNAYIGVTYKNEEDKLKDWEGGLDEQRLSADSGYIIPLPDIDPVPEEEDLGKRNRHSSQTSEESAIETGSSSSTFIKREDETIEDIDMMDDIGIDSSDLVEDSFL

IC50 (PDGFRα; [2])	GPR17 Fold Induction (Over Vehicle; 3 μM) [1]	IC50 (PDGFRα; 20 ng purified PDGFRα, Poly (Glu4Tyr1) substrate, two hours, 11-point dose response, read-out: IC50 Values on PDGFRα Kinase Inhibition)	GPR17 Fold Induction (Over Vehicle; 5 μM) ([1]; primary rat OPCs, 5 μM (10x; final 0.5 μM per method), percent GPR17+ cells as fold change over vehicle)	Compound
> 10000 nM	1.45	–	–	CN(CCCNc1ncc(Cc2ccccc2)cn1)c1cnn2cc(-c3cnn(C)c3)ccc12 [Compound 128, N^1-(5-benzylpyrimidin-2-yl)-N^3-methyl-N^3-(6-(1-methyl-1H-pyrazol-4-yl)pyrazolo[1,5-a]pyridin-3-yl)propane-1,3-diamine]
674 nM	1.79	–	–	CC(C)N(C)C(=O)N1CCN(c2cnn3cc(-c4cnn(C)c4)ccc23)CC1 [Compound 252, N-isopropyl-N-methyl-4-[6-(1-methyl-1H-pyrazol-4-yl)pyrazolo[1,5-a]pyridin-3-yl]piperazine-1-carboxamide]
1400 nM	6.13	–	–	CN(Cc1ccc(Cl)cc1)C(=O)N1CCN(c2cnn3cc(-c4cnn(C)c4)ccc23)CC1 [Compound 278, N-(4-chlorobenzyl)-N-methyl-4-[6-(1-methyl-1H-pyrazol-4-yl)pyrazolo[1,5-a]pyridin-3-yl]piperazine-1-carboxamide]
> 10000 nM	1.22	–	–	CC(C)(C)OC(=O)N1CCN(c2cnn3cc(-c4cccc(F)c4)ccc23)CC1 [Compound 208, tert-butyl 4-(6-(3-fluorophenyl)pyrazolo[1,5-a]pyridin-3-yl)piperazine-1-carboxylate]
2380 nM	3.96	–	–	Cn1cc(-c2ccc3c(N4CCN(c5ncc(Cc6ncco6)cn5)CC4)cnn3c2)cn1 [Compound 170, 2-((2-(4-(6-(1-methyl-1H-pyrazol-4-yl)pyrazolo[1,5-a]pyridin-3-yl)piperazin-1-yl)pyrimidin-5-yl)methyl)oxazole]
> 10000 nM	1.88	–	–	Cn1cc(-c2ccc3c(N4CCN(c5ncnn5Cc5ccccc5)CC4)cnn3c2)cn1 [Compound 239, 3-(4-(1-benzyl-1H-1,2,4-triazol-5-yl)piperazin-1-yl)-6-(1-methyl-1H-pyrazol-4-yl)pyrazolo[1,5-a]pyridine]
744 nM	5.85	–	–	Cn1cc(-c2ccc3c(C4=CCC(C(=O)OCc5ccccc5)CC4)cnn3c2)cn1 (stereo not drawn) [Compound 132, benzyl 4-(6-(1-methyl-1H-pyrazol-4-yl)pyrazolo[1,5-a]pyridin-3-yl)cyclohex-3-ene-1-carboxylate]
1440 nM	4.54	–	–	Cn1cc(-c2ccc3c(N4CCN(C5=NCC(c6ccccc6)O5)CC4)cnn3c2)cn1 (stereo not drawn) [Compound 56, 6-(1-Methyl-1H-pyrazol-4-yl)-3-[4-(5-phenyl-4,5-dihydro-1,3-oxazol-2-yl)piperazin-1-yl]pyrazolo[1,5-a]pyridine]
–	–	1210 nM	4.68	Cc1ccc(F)c(NC(=O)Nc2ccc(-c3cccc4[nH]nc(N)c34)cc2)c1 [Linifanib (ABT-869), linifanib, reference compound]
912 nM	3.74	–	–	Cc1nn(C)c(C)c1-c1ccc2c(N3CCN(C(=O)OC(C)(C)C)CC3)cnn2c1 [Compound 222, tert-butyl 4-(6-(1,3,5-trimethyl-1H-pyrazol-4-yl)pyrazolo[1,5-a]pyridin-3-yl)piperazine-1-carboxylate]
> 10000 nM	3.54	–	–	CN(Cc1ccccc1)C(=O)C1CCC(c2cnn3cc(-c4cnn(C)c4)ccc23)C1 (stereo not drawn) [Compound 140, N-benzyl-N-methyl-3-(6-(1-methyl-1H-pyrazol-4-yl)pyrazolo[1,5-a]pyridin-3-yl)cyclopentane-1-carboxamide]
2800 nM	1.40	–	–	Cc1cn(-c2ccn3c(N4CCN(C(=O)OC(C)(C)C)CC4)cnc3n2)cn1 [Compound 104, tert-butyl 4-(7-(4-methyl-1H-imidazol-1-yl)imidazo[1,2-a]pyrimidin-3-yl)piperazine-1-carboxylate]
710 nM	4.90	–	–	Cn1cc(-c2ccc3c(N4CCN(c5ncc(Cc6cscn6)cn5)CC4)cnn3c2)cn1 [Compound 172, 4-((2-(4-(6-(1-methyl-1H-pyrazol-4-yl)pyrazolo[1,5-a]pyridin-3-yl)piperazin-1-yl)pyrimidin-5-yl)methyl)thiazole]
> 10000 nM	3.19	–	–	Cn1cc(-c2ccn3c(N4CCCN(c5ncc(Cc6ccccc6)cn5)CC4)cnc3n2)cn1 [Compound 122, 3-(4-(5-benzylpyrimidin-2-yl)-1,4-diazepan-1-yl)-7-(1-methyl-1H-pyrazol-4-yl)imidazo[1,2-a]pyrimidine]
5250 nM	7.29	–	–	C[C@@H](NS(=O)(=O)N1CCN(c2cnn3cc(-c4cnn(C)c4)ccc23)CC1)c1ccc(Cl)cc1 [Compound 293, (R)-N-(1-(4-chlorophenyl)ethyl)-4-(6-(1-methyl-1H-pyrazol-4-yl)pyrazolo[1,5-a]pyridin-3-yl)piperazine-1-sulfonamide]
> 10000 nM	0.93	–	–	Cn1cc(-c2cc3ncc(N4CCN(C(=O)NCc5ccc(C(F)(F)F)cc5)CC4)n3cn2)cn1 [Compound 118, 4-(7-(1-methyl-1H-pyrazol-4-yl)imidazo[1,2-c]pyrimidin-3-yl)-N-(4-(trifluoromethyl)benzyl)piperazine-1-carboxamide]
2700 nM	2.11	–	–	C[C@H](c1ccc(Cl)cc1)N(C)C(=O)N1CCN(c2cnn3cc(-c4cnn(C)c4)ccc23)CC1 [Compound 276, (R)—N-(1-(4-chlorophenyl)ethyl)-N-methyl-4-(6-(1-methyl-1H-pyrazol-4-yl)pyrazolo[1,5-a]pyridin-3-yl)piperazine-1-carboxamide]
> 10000 nM	–	–	–	Cn1cc(-c2ccn3ncc(N4CCN(c5ncc(Cc6ccccc6)cn5)CC4)c3c2)cn1 [Compound 4, 3-[4-(5-benzylpyrimidin-2-yl)piperazin-1-yl]-5-(1-methyl-1H-pyrazol-4-yl)pyrazolo[1,5a]pyridine]
–	1.43	–	–	Cn1cc(-c2ccn3c(N4CCN(C(=O)OC(C)(C)C)CC4)cnc3n2)cn1 [Compound 87]
–	1.15	–	–	Cn1cc(-c2ccc3c(CCc4ncc(Cc5ccccc5)cn4)cnn3c2)cn1 [Compound 305, 3-(2-(5-benzylpyrimidin-2-yl)ethyl)-6-(1-methyl-1H-pyrazol-4-yl)pyrazolo[1,5-a]pyridine]
–	9.23	–	–	Cn1cc(-c2ccc3c(N4CCN(C(=O)OCc5ccc(Cl)cc5)CC4)cnn3c2)cn1 [Compound 198, 4-chlorobenzyl 4-(6-(1-methyl-1H-pyrazol-4-yl)pyrazolo[1,5-a]pyridin-3-yl)piperazine-1-carboxylate]
–	1.94	–	–	Cn1cc(-c2ccc3c(N4CCN(Cc5ccc(Cl)cc5)CC4)cnn3c2)cn1 [Compound 202, 3-(4-(4-chlorobenzyl)piperazin-1-yl)-6-(1-methyl-1H-pyrazol-4-yl)pyrazolo[1,5-a]pyridine]
–	1.57	–	–	CN(CCCN(C)c1cnn2cc(-c3cnn(C)c3)ccc12)c1ncc(Cc2ccccc2)cn1 [Compound 130]

Compound	IC50 (PDGFRα; [2])	GPR17 Fold Induction (Over Vehicle; 3 μM) [1]	IC50 (PDGFRα; 20 ng purified PDGFRα, Poly (Glu4Tyr1) substrate, two hours, 11-point dose response, read-out: IC50 Values on PDGFRα Kinase Inhibition)	GPR17 Fold Induction (Over Vehicle; 5 μM) ([1]; primary rat OPCs, 5 μM (10x; final 0.5 μM per method), percent GPR17+ cells as fold change over vehicle)
CC(C)(C)OC(=O)N1CCN(c2cnn3cc(-c4cncnc4)ccc23)CC1 [Compound 219, tert-butyl 4-(6-(pyrimidin-5-yl)pyrazolo[1,5-a]pyridin-3-yl)piperazine-1-carboxylate]	> 10000 nM	1.42	–	–
